According to BindingDB's records for doi:10.1074/jbc.M111.326777 (University of North Carolina, 2012):
Structures can show the parent of a compound that is named as a salt.

Experiments:
Experiment in all cases: Enzymatic Assay
Details in all cases: pH 7.5; 24 °C
Phosphodiesterase = biological target: T1, Phosphodiesterase (Trypanosoma cruzi, UniProt Q53I59)
T1 sequence (Q53I59 whole entry): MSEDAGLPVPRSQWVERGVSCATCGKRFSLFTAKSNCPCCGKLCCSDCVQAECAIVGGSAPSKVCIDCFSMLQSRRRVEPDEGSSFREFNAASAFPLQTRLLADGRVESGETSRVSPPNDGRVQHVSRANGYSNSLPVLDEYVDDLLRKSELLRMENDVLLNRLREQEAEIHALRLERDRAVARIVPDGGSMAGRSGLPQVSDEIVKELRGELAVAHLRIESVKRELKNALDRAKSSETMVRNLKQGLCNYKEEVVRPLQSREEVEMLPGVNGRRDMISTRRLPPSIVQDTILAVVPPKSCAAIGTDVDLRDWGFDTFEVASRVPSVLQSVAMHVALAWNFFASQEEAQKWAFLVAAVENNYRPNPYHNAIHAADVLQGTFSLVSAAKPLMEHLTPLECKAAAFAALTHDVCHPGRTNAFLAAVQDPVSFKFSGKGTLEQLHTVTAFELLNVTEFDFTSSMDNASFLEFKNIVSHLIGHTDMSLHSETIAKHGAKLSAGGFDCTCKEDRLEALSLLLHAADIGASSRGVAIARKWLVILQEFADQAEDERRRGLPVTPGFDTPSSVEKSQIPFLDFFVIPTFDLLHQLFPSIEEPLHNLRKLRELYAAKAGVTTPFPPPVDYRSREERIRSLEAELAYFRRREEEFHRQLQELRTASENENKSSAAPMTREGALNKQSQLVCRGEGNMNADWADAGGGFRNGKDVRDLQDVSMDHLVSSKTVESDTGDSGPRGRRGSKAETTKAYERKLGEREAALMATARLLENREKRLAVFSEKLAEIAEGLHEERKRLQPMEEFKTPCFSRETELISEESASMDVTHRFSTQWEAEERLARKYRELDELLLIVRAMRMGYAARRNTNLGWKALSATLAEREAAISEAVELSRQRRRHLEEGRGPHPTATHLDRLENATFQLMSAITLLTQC
Method: (§1) Enzymatic activities were assayed using [3H] cAMP and [3H]cGMP as substrate.

[1] = biological target: cAMP-specific 3',5'-cyclic phosphodiesterase 4D (Homo sapiens, UniProt Q08499)
Method: as §1

[2] = biological target: cGMP-specific 3',5'-cyclic phosphodiesterase (Homo sapiens, UniProt O76074)
Method: as §1

[3] = biological target: cGMP-inhibited 3',5'-cyclic phosphodiesterase 3A (Homo sapiens, UniProt Q14432)
Method: as §1

[4] = biological target: High affinity cAMP-specific and IBMX-insensitive 3',5'-cyclic phosphodiesterase 8A (Homo sapiens, UniProt O60658)
Method: as §1

[5] = biological target: cGMP-dependent 3',5'-cyclic phosphodiesterase (Homo sapiens, UniProt O00408)
Method: as §1

Chain of cGMP-inhibited 3',5'-cyclic phosphodiesterase 3A (Q14432 whole entry): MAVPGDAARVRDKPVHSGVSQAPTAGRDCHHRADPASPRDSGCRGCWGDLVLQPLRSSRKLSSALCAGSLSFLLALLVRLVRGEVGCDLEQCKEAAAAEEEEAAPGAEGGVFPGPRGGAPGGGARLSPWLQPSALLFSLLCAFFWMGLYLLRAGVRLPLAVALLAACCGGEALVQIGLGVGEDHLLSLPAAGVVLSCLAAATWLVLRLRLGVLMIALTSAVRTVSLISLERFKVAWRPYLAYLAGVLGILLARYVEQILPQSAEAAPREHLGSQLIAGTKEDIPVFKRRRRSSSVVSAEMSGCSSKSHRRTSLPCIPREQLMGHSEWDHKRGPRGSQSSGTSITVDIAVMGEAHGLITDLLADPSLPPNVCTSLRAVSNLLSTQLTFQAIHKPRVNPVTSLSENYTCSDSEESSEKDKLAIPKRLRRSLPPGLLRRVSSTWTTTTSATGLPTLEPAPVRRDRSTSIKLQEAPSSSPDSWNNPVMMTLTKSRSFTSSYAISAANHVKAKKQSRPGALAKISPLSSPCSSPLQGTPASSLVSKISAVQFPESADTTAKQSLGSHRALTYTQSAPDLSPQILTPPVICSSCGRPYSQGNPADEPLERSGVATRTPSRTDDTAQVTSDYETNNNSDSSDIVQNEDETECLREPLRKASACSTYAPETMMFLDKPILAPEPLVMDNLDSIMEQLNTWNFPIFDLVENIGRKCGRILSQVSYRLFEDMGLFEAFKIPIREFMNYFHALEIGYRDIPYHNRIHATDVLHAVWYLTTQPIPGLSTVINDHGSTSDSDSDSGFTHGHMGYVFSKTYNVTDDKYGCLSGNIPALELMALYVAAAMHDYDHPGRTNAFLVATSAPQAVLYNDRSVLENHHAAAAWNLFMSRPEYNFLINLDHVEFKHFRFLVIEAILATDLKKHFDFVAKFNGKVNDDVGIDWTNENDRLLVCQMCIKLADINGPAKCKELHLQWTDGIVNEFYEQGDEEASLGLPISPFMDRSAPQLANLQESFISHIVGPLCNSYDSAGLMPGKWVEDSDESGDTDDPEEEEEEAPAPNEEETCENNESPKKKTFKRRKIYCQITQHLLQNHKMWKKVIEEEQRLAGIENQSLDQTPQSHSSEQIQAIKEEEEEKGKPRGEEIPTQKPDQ
Chain of High affinity cAMP-specific and IBMX-insensitive 3',5'-cyclic phosphodiesterase 8A (O60658 whole entry): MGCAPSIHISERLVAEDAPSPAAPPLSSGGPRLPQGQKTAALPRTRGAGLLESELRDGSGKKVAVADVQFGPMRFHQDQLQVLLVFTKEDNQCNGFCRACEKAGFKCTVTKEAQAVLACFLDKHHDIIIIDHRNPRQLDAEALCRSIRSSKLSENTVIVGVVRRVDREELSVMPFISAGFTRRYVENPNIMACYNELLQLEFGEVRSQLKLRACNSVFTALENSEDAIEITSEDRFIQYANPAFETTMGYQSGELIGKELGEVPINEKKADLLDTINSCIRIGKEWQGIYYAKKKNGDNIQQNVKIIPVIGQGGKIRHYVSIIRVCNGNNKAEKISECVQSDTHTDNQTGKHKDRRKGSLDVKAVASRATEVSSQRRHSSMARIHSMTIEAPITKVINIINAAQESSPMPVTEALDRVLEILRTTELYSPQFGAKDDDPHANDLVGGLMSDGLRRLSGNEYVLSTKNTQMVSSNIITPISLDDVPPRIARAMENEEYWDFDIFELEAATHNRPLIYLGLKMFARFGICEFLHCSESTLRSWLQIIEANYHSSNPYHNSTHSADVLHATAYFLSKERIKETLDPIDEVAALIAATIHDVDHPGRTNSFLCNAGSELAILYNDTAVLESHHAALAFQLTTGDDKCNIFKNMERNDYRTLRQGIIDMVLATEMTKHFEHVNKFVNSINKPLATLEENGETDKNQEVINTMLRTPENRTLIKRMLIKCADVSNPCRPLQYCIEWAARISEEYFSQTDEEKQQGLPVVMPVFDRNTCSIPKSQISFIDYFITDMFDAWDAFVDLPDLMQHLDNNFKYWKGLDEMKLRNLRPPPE
Chain of cAMP-specific 3',5'-cyclic phosphodiesterase 4D (Q08499 whole entry): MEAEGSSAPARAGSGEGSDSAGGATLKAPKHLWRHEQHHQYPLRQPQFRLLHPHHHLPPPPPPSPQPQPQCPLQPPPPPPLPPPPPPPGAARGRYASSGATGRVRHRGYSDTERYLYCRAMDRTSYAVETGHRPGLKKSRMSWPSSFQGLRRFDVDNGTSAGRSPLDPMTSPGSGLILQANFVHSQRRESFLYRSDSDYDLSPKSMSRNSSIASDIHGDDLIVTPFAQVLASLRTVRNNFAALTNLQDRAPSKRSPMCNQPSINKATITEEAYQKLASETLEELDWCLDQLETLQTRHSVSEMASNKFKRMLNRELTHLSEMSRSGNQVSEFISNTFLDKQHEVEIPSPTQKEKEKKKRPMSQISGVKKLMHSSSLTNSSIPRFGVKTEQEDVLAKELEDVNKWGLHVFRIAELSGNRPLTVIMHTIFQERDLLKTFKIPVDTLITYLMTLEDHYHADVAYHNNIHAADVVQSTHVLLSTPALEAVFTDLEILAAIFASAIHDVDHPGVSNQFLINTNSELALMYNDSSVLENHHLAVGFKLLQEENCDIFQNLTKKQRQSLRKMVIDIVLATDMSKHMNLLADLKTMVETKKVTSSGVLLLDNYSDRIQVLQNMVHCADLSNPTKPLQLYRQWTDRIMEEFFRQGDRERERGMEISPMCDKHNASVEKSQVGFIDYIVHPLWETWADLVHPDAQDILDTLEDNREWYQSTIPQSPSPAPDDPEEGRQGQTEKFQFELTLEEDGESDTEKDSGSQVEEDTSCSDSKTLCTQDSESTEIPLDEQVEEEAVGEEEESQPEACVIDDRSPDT
Chain of cGMP-dependent 3',5'-cyclic phosphodiesterase (O00408 whole entry): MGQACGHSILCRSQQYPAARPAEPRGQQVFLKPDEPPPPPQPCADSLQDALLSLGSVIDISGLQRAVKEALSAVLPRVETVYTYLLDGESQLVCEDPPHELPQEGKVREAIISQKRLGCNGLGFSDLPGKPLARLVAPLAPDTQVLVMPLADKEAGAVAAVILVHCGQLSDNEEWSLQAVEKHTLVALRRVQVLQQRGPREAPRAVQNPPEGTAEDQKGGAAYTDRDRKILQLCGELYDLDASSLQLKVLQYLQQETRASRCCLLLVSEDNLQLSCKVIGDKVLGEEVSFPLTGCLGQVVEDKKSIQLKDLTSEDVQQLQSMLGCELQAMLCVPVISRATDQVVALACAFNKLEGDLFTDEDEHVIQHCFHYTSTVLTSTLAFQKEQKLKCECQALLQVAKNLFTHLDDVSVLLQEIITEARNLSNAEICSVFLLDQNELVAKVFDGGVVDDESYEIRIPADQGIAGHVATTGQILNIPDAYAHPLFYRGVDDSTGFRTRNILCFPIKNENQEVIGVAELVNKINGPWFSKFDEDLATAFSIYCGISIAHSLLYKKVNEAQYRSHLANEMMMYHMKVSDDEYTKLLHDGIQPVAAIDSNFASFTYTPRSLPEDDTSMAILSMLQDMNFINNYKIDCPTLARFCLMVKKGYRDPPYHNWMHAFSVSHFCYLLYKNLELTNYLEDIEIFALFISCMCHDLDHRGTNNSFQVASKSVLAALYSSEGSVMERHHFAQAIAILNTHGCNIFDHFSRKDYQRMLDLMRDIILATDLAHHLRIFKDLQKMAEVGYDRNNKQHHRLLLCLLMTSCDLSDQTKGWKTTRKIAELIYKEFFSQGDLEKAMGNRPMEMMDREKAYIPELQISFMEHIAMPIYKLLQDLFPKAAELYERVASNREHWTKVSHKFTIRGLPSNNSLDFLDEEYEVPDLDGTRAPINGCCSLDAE

Structure (SMILES) | IC50 (Phosphodiesterase) | further results
CC(=O)CCCCn1c(=O)c2c(ncn2C)n(C)c1=O [1-(5-Oxohexyl)theobromine (pentoxifylline)] | > 100000 nM | 
COc1ccc([C@@H]2CNC(=O)C2)cc1OC1CCCC1 (racemic) [Adeo] | > 100000 nM | 
COc1ccc(Cc2nccc3cc(OC)c(OC)cc23)cc1OC | 25000 nM | 
CCCOc1cc(CC2CNC(=O)N2)ccc1OC (stereo not given) [Ro20-1724] | > 100000 nM | 
COc1cc(-c2ccc(=O)[nH]n2)ccc1OC(F)F [6-[4-(difluoromethoxy)-3-methoxyphenyl]-2,3-dihydropyridazin-3-one] | > 100000 nM | IC50 [3]: 500 nM
CCCCCC[C@H]([C@H](C)O)n1cnc2c(N)ncnc21 (relative stereo) [3-(6-amino-9H-purin-9-yl)nonan-2-ol] | > 100000 nM | IC50 [5]: 800 nM

The next lines start with results.

IC50 (Phosphodiesterase) | Structure (SMILES) | further results
700 nM | CCOC(=O)c1cnc2c(cnn2CC)c1N=NC(C)C [1-Ethyl-4-(N'-isopropylidene-hydrazino)-1H-pyrazolo[3,4-b]pyridine-5-carboxylic acid ethyl ester] | IC50 [1]: 2000 nM
68000 nM | CC(C)Cn1c(=O)n(C)c(=O)c2[nH]cnc21 [1-methyl-3-(2-methylpropyl)-2,3,6,7-tetrahydro-1H-purine-2,6-dione] | 
230 nM | CCCc1nn(C)c2c(=O)[nH]c(-c3cc(S(=O)(=O)NC(=O)OC(C)C)ccc3OCC)nc12 [Wyq16#] | IC50 [2]: 3 nM
> 100000 nM | Cc1[nH]c(=O)c(C#N)cc1-c1ccncc1 [Milrinone] | 
> 1000 nM | CCCc1nn(C)c2c(=O)[nH]c(-c3cc(S(=O)(=O)N4CCN(C)CC4)ccc3OCC)nc12 [SILDENAFIL CITRATE] | 
3900 nM | COc1cc2c(cc1OC)-c1c/c(=N\c3c(C)cc(C)cc3C)n(C)c(=O)n1CC2 [CAS_5537] | IC50 [3]: 0.3 nM
> 100000 nM | CN(C(=O)CCCOc1ccc2[nH]c(=O)ccc2c1)C1CCCCC1 [N-Cyclohexyl-N-methyl-4-(2-oxo-1,2-dihydro-quinolin-6-yloxy)-butyramide] | 
6900 nM | OCCN(CCO)c1nc(N2CCCCC2)c2nc(N(CCO)CCO)nc(N3CCCCC3)c2n1 [Dipyridamine] | IC50 [4]: 500 nM
